Experimental data published in patent US7265106B2, “Method for isolating (R)-tofisopam” (Vela Aquisition Corporation, priority 2003, dated 2007).
Values after ≈ are worked out from the molar mass of the structure shown.

Experiment: physchem
Type: physicochemical
Settings: organic solvent or mixture

## CCC1C(C)=NN=C(c2ccc(OC)c(OC)c2)c2cc(OC)c(OC)cc21 (racemic) [racemic tofisopam, 1-(3,4-dimethoxyphenyl)-4-methyl-5-ethyl-7,8-dimethoxy-5H-2,3-benzodiazepine]
  solubility: ~136 mg/mL (≈ 354 mM)
